Source: the kinase profiling compilation of Christmann-Franck et al. (2016)

target: STK16 (human) (UniProt O75716); test: radiometric filter-binding kinase assay; conditions: compound 100.0 µM; ATP 50 µM

SMILES	inhibition
Nc1nc2cnc(-c3ccccc3)cn2n1	7%
Nc1cnc2c(-c3c(F)cccc3F)cccn2c1=O	3%
Cc1cccc(C)c1-c1cn2nc(N)nc2cn1	6%

target: MAPKAPK3 (human) (UniProt Q16644); test: radiometric filter-binding kinase assay; conditions: compound 100.0 µM; ATP 20 µM

SMILES	inhibition
O=c1c(NC(=S)NCc2ccccc2)cnc2[nH]ccn12	21%
O=C(Nc1cnc2[nH]cnn2c1=O)c1ccccc1	0%
Nc1nc2cnc(-c3ccccc3)cn2n1	40%
Nc1cnc2c(-c3c(F)cccc3F)cccn2c1=O	54%
Cc1cccc(C)c1-c1cn2nc(N)nc2cn1	33%

target: PHKG1 (human) (UniProt Q16816); test: radiometric filter-binding kinase assay; conditions: compound 100.0 µM; ATP 50 µM

SMILES	inhibition
O=c1c(NC(=S)NCc2ccccc2)cnc2[nH]ccn12	24%
O=C(Nc1cnc2[nH]cnn2c1=O)c1ccccc1	28%
Nc1nc2cnc(-c3ccccc3)cn2n1	83%
Nc1cnc2c(-c3c(F)cccc3F)cccn2c1=O	38%
Cc1cccc(C)c1-c1cn2nc(N)nc2cn1	41%

target: CHEK1 (human) (UniProt O14757); test: radiometric filter-binding kinase assay; conditions: compound 100.0 µM; ATP 20 µM

SMILES	inhibition
O=c1c(NC(=S)NCc2ccccc2)cnc2[nH]ccn12	0%
O=C(Nc1cnc2[nH]cnn2c1=O)c1ccccc1	0%
Nc1nc2cnc(-c3ccccc3)cn2n1	45%
Nc1cnc2c(-c3c(F)cccc3F)cccn2c1=O	0%
Cc1cccc(C)c1-c1cn2nc(N)nc2cn1	9%

system: SGK1 (human), O00141 [S422D]; test: radiometric filter-binding kinase assay; conditions: compound 100.0 µM; ATP 20 µM
Sequence (O00141 whole entry S422D, looked up): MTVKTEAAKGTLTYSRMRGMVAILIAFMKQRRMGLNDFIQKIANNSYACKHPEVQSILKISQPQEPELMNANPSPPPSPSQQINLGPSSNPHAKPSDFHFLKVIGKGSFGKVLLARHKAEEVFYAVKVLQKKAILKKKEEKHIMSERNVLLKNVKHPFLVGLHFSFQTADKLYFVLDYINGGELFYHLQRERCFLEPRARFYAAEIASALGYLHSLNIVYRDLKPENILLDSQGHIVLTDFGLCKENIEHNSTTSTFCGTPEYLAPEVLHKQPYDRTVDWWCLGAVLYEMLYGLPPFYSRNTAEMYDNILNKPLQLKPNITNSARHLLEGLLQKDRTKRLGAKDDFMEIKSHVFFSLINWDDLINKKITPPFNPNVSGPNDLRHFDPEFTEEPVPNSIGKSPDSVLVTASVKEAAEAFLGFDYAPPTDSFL

SMILES	inhibition
O=c1c(NC(=S)NCc2ccccc2)cnc2[nH]ccn12	0%
O=C(Nc1cnc2[nH]cnn2c1=O)c1ccccc1	0%
Nc1nc2cnc(-c3ccccc3)cn2n1	34%
Nc1cnc2c(-c3c(F)cccc3F)cccn2c1=O	0%
Cc1cccc(C)c1-c1cn2nc(N)nc2cn1	19%

target: MAPK14 (human) (UniProt Q16539); test: radiometric filter-binding kinase assay; conditions: compound 100.0 µM; ATP 50 µM

SMILES	inhibition
O=c1c(NC(=S)NCc2ccccc2)cnc2[nH]ccn12	0%
O=C(Nc1cnc2[nH]cnn2c1=O)c1ccccc1	0%
Nc1nc2cnc(-c3ccccc3)cn2n1	27%
Nc1cnc2c(-c3c(F)cccc3F)cccn2c1=O	0%
Cc1cccc(C)c1-c1cn2nc(N)nc2cn1	35%

target: MARK2 (human) (UniProt Q7KZI7); test: radiometric filter-binding kinase assay; conditions: compound 100.0 µM; ATP 20 µM
Sequence (Q7KZI7 whole entry, looked up): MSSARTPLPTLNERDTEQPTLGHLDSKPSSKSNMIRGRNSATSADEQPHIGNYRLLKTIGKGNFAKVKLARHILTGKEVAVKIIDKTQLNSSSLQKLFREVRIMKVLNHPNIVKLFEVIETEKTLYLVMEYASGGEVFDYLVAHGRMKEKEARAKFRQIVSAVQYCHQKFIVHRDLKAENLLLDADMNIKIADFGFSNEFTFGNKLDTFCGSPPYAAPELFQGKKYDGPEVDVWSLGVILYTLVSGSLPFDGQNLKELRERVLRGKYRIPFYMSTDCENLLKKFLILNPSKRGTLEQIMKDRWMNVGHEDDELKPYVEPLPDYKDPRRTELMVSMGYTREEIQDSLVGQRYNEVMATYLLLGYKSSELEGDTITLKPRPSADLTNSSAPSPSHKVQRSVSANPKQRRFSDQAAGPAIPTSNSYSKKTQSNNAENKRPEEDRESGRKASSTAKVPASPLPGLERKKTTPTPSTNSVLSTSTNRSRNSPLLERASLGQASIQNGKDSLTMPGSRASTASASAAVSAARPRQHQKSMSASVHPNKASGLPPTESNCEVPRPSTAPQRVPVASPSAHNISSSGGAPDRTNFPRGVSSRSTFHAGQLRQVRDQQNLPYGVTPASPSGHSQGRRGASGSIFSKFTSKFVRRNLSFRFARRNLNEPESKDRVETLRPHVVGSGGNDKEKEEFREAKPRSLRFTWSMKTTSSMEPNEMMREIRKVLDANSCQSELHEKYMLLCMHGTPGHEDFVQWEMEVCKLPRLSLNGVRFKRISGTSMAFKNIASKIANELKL

SMILES	inhibition
O=c1c(NC(=S)NCc2ccccc2)cnc2[nH]ccn12	0%
O=C(Nc1cnc2[nH]cnn2c1=O)c1ccccc1	0%
Nc1nc2cnc(-c3ccccc3)cn2n1	2%
Nc1cnc2c(-c3c(F)cccc3F)cccn2c1=O	53%
Cc1cccc(C)c1-c1cn2nc(N)nc2cn1	0%

target: GCK (human) (UniProt Q12851); test: radiometric filter-binding kinase assay; conditions: compound 100.0 µM; ATP 20 µM

SMILES	inhibition
O=c1c(NC(=S)NCc2ccccc2)cnc2[nH]ccn12	0%
O=C(Nc1cnc2[nH]cnn2c1=O)c1ccccc1	0%
Nc1nc2cnc(-c3ccccc3)cn2n1	93%
Nc1cnc2c(-c3c(F)cccc3F)cccn2c1=O	95%
Cc1cccc(C)c1-c1cn2nc(N)nc2cn1	59%

target: MAPK12 (human) (UniProt P53778); test: radiometric filter-binding kinase assay; conditions: compound 100.0 µM; ATP 5 µM

SMILES	inhibition
O=c1c(NC(=S)NCc2ccccc2)cnc2[nH]ccn12	0%
O=C(Nc1cnc2[nH]cnn2c1=O)c1ccccc1	0%
Nc1nc2cnc(-c3ccccc3)cn2n1	1%
Nc1cnc2c(-c3c(F)cccc3F)cccn2c1=O	17%
Cc1cccc(C)c1-c1cn2nc(N)nc2cn1	0%

target: MAP2K2 (human) (UniProt P36507); test: radiometric filter-binding kinase assay; conditions: compound 100.0 µM; ATP 5 µM

SMILES	inhibition
O=c1c(NC(=S)NCc2ccccc2)cnc2[nH]ccn12	0%
O=C(Nc1cnc2[nH]cnn2c1=O)c1ccccc1	0%
Nc1nc2cnc(-c3ccccc3)cn2n1	35%
Nc1cnc2c(-c3c(F)cccc3F)cccn2c1=O	71%
Cc1cccc(C)c1-c1cn2nc(N)nc2cn1	28%

target: CLK2 (human) (UniProt P49760); test: radiometric filter-binding kinase assay; conditions: compound 100.0 µM; ATP 5 µM

SMILES	inhibition
O=c1c(NC(=S)NCc2ccccc2)cnc2[nH]ccn12	3%
O=C(Nc1cnc2[nH]cnn2c1=O)c1ccccc1	0%
Nc1nc2cnc(-c3ccccc3)cn2n1	74%
Nc1cnc2c(-c3c(F)cccc3F)cccn2c1=O	91%
Cc1cccc(C)c1-c1cn2nc(N)nc2cn1	33%

target: IKBKB (human) (UniProt O14920); test: radiometric filter-binding kinase assay; conditions: compound 100.0 µM; ATP 5 µM
Sequence (O14920 whole entry, looked up): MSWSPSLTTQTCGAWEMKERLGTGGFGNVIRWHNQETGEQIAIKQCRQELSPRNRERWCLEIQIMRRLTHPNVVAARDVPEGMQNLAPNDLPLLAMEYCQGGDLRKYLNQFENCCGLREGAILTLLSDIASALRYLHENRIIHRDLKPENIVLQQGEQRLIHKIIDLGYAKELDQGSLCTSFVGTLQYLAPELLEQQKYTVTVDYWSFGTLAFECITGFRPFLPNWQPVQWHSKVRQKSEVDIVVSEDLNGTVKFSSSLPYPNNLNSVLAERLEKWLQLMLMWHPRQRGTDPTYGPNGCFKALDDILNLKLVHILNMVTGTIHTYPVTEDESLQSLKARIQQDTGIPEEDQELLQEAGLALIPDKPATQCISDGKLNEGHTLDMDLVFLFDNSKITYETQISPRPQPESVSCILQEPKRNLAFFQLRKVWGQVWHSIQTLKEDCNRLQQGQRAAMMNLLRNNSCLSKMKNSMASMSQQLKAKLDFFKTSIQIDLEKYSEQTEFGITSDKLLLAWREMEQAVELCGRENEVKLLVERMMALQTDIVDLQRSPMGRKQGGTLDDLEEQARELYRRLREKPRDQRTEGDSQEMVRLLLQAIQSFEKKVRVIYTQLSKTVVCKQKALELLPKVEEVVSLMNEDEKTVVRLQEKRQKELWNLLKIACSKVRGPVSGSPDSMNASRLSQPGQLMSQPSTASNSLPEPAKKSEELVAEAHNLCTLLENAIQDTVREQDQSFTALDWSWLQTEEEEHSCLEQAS

SMILES	inhibition
O=c1c(NC(=S)NCc2ccccc2)cnc2[nH]ccn12	0%
O=C(Nc1cnc2[nH]cnn2c1=O)c1ccccc1	0%
Nc1nc2cnc(-c3ccccc3)cn2n1	27%
Nc1cnc2c(-c3c(F)cccc3F)cccn2c1=O	66%
Cc1cccc(C)c1-c1cn2nc(N)nc2cn1	0%

target: MAP3K11 (human) (UniProt Q16584); test: radiometric filter-binding kinase assay; conditions: compound 100.0 µM; ATP 20 µM

SMILES	inhibition
O=c1c(NC(=S)NCc2ccccc2)cnc2[nH]ccn12	11%
O=C(Nc1cnc2[nH]cnn2c1=O)c1ccccc1	0%
Nc1nc2cnc(-c3ccccc3)cn2n1	89%
Nc1cnc2c(-c3c(F)cccc3F)cccn2c1=O	63%
Cc1cccc(C)c1-c1cn2nc(N)nc2cn1	0%

target: FLT1 (human) (UniProt P17948); test: radiometric filter-binding kinase assay; conditions: compound 100.0 µM; ATP 20 µM
Sequence (P17948 whole entry, looked up): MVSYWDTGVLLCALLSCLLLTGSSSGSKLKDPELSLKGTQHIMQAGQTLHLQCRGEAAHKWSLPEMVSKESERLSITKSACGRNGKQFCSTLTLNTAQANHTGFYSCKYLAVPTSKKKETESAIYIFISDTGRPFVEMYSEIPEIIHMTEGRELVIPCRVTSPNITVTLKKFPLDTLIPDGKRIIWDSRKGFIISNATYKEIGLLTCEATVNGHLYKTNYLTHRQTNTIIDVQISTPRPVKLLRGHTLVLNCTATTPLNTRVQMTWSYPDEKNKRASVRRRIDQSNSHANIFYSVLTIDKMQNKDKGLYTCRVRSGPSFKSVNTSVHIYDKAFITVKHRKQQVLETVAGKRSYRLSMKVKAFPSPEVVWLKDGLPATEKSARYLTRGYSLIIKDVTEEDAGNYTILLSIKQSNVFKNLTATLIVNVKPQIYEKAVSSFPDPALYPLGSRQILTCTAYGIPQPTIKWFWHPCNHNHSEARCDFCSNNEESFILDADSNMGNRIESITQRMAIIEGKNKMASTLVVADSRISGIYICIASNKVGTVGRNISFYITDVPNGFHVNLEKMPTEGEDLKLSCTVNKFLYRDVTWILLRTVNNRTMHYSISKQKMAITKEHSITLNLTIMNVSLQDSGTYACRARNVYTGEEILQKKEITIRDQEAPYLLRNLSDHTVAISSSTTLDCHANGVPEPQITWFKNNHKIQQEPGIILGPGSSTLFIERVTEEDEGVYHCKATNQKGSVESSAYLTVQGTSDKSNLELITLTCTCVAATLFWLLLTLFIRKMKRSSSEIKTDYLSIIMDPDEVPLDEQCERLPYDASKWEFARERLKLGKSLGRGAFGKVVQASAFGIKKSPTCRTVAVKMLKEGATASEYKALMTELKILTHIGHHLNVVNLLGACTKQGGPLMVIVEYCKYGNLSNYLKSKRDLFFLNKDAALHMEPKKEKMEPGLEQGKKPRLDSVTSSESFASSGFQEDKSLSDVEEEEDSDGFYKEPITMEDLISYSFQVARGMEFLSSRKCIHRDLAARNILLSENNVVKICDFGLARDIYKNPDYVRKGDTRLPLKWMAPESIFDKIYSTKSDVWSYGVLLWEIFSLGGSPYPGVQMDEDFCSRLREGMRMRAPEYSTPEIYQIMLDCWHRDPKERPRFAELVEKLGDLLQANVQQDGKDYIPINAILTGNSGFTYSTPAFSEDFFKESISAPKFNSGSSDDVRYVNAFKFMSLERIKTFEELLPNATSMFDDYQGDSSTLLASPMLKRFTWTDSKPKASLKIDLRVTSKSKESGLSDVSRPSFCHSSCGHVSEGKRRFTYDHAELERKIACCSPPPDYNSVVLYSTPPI

SMILES	inhibition
O=c1c(NC(=S)NCc2ccccc2)cnc2[nH]ccn12	28%
O=C(Nc1cnc2[nH]cnn2c1=O)c1ccccc1	0%
Nc1nc2cnc(-c3ccccc3)cn2n1	82%
Nc1cnc2c(-c3c(F)cccc3F)cccn2c1=O	72%
Cc1cccc(C)c1-c1cn2nc(N)nc2cn1	22%

target: NUAK1 (human) (UniProt O60285); test: radiometric filter-binding kinase assay; conditions: compound 100.0 µM; ATP 20 µM
Sequence (O60285 whole entry, looked up): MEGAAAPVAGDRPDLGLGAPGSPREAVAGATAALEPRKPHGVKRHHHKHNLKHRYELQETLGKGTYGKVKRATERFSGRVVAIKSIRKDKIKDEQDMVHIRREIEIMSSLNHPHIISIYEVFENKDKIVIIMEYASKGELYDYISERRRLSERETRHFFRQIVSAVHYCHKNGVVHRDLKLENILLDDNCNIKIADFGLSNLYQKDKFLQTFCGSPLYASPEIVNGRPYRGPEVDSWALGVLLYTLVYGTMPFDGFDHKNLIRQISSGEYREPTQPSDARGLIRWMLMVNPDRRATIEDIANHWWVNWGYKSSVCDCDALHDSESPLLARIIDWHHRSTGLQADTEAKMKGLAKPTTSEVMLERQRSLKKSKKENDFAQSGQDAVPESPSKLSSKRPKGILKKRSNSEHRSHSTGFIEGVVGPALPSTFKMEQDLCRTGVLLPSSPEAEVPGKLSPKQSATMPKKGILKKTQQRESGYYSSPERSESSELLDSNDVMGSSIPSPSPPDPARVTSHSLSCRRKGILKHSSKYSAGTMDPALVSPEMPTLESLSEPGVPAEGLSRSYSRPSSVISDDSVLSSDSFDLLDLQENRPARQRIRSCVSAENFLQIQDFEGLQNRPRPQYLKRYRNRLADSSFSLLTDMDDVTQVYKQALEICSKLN

SMILES	inhibition
O=c1c(NC(=S)NCc2ccccc2)cnc2[nH]ccn12	0%
O=C(Nc1cnc2[nH]cnn2c1=O)c1ccccc1	0%
Nc1nc2cnc(-c3ccccc3)cn2n1	73%
Nc1cnc2c(-c3c(F)cccc3F)cccn2c1=O	76%
Cc1cccc(C)c1-c1cn2nc(N)nc2cn1	28%

target: NEK6 (human) (UniProt Q9HC98); test: radiometric filter-binding kinase assay; conditions: compound 100.0 µM; ATP 50 µM
Sequence (Q9HC98 whole entry, looked up): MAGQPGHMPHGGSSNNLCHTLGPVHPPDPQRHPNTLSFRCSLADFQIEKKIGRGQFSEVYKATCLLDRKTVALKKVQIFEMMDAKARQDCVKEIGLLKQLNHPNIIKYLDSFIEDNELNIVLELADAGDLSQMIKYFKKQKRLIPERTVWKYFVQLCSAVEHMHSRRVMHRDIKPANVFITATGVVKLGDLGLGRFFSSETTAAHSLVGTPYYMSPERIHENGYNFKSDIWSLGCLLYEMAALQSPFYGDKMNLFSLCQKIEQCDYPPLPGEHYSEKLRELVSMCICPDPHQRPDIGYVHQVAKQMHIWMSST

SMILES	inhibition
O=c1c(NC(=S)NCc2ccccc2)cnc2[nH]ccn12	6%
O=C(Nc1cnc2[nH]cnn2c1=O)c1ccccc1	0%
Nc1nc2cnc(-c3ccccc3)cn2n1	1%
Nc1cnc2c(-c3c(F)cccc3F)cccn2c1=O	0%
Cc1cccc(C)c1-c1cn2nc(N)nc2cn1	3%

target: HIPK2 (human) (UniProt Q9H2X6); test: radiometric filter-binding kinase assay; conditions: compound 100.0 µM; ATP 5 µM

SMILES	inhibition
O=c1c(NC(=S)NCc2ccccc2)cnc2[nH]ccn12	0%
O=C(Nc1cnc2[nH]cnn2c1=O)c1ccccc1	0%
Nc1nc2cnc(-c3ccccc3)cn2n1	57%
Nc1cnc2c(-c3c(F)cccc3F)cccn2c1=O	18%
Cc1cccc(C)c1-c1cn2nc(N)nc2cn1	8%

target: MAPK13 (human) (UniProt O15264); test: radiometric filter-binding kinase assay; conditions: compound 100.0 µM; ATP 5 µM

SMILES	inhibition
O=c1c(NC(=S)NCc2ccccc2)cnc2[nH]ccn12	0%
O=C(Nc1cnc2[nH]cnn2c1=O)c1ccccc1	0%
Nc1nc2cnc(-c3ccccc3)cn2n1	18%
Nc1cnc2c(-c3c(F)cccc3F)cccn2c1=O	0%
Cc1cccc(C)c1-c1cn2nc(N)nc2cn1	15%

target: PTK6 (human) (UniProt Q13882); test: radiometric filter-binding kinase assay; conditions: compound 100.0 µM; ATP 20 µM

SMILES	inhibition
O=c1c(NC(=S)NCc2ccccc2)cnc2[nH]ccn12	31%
O=C(Nc1cnc2[nH]cnn2c1=O)c1ccccc1	19%
Nc1nc2cnc(-c3ccccc3)cn2n1	53%
Nc1cnc2c(-c3c(F)cccc3F)cccn2c1=O	67%
Cc1cccc(C)c1-c1cn2nc(N)nc2cn1	15%

target: MKNK1 (human) (UniProt Q9BUB5); test: radiometric filter-binding kinase assay; conditions: compound 100.0 µM; ATP 50 µM
Sequence (Q9BUB5 whole entry, looked up): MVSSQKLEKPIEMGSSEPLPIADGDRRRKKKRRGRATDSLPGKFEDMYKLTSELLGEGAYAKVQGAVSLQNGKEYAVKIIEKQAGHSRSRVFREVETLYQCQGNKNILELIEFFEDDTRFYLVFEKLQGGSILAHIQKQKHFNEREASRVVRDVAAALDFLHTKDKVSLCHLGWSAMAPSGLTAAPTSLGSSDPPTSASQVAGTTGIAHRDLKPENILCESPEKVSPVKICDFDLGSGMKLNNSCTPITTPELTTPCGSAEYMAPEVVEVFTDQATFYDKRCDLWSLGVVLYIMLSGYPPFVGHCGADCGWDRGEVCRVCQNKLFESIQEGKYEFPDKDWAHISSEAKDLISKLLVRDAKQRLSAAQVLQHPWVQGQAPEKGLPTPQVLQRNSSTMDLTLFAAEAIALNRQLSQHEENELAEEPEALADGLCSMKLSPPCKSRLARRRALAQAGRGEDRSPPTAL

SMILES	inhibition
O=c1c(NC(=S)NCc2ccccc2)cnc2[nH]ccn12	0%
O=C(Nc1cnc2[nH]cnn2c1=O)c1ccccc1	0%
Nc1nc2cnc(-c3ccccc3)cn2n1	71%
Nc1cnc2c(-c3c(F)cccc3F)cccn2c1=O	1%
Cc1cccc(C)c1-c1cn2nc(N)nc2cn1	24%
